What was measured:
liver COMT = experiment: Liver COMT activity after oral administration (methylation of adrenaline to metanephrine in liver homogenates); format: in vivo, rat; conditions: FIG. 1; for inhibition of liver COMT / inhibition of liver COMT activity / time to maximal inhibitory effect on liver COMT: 3 mg/kg; for inhibition of liver COMT: 24 hours after administration; for inhibition of liver COMT activity: nine hours after administration
[1] = Plasma levels of L-DOPA and 3-O-methyl-L-DOPA in rats treated with L-DOPA plus benserazide; format: in vivo, rat; conditions: 3 mg/kg
[2] = Brain levels of L-DOPA, 3-O-methyl-L-DOPA, dopamine, DOPAC and HVA in rats treated with L-DOPA plus benserazide; format: in vivo, rat
[3] = Treatment of Parkinson's disease patients on L-DOPA therapy; format: in vivo, human; conditions: tablets containing 50 mg
[4] = L-DOPA 12 mg/kg plus benserazide 3 mg/kg, all pre-treatment times (1, 7 and 24 h)
[5] = 3 mg/kg, L-DOPA plus benserazide, all pre-treatment times (1, 7 and 24 h)
[6] = 3 mg/kg, administered 24 h in advance

## Cc1nc(Cl)c(-c2noc(-c3cc(O)c(O)c([N+](=O)[O-])c3)n2)c(C)c1Cl [compound A, 5-[3-(2,5-dichloro-4,6-dimethylpyridin-3-yl)-[1,2,4]oxadiazol-5-yl]-3-nitrobenzene-1,2-diol]
Liver COMT
  inhibition of liver COMT: 60 % of control levels
  inhibition of liver COMT activity: 90 % of control levels
Liver COMT; oral administration
  time to maximal inhibitory effect on liver COMT: ≤ 6 h
  inhibitor of liver COMT (in words): potent inhibitor
[1]; [4]
  circulating 3-O-methyl-L-DOPA: marked decrease
  plasma L-DOPA: significant increases
[2]; [5]
  brain 3-O-methyl-L-DOPA: marked decrease
  brain DOPAC: significant increases
  brain L-DOPA: significant increases
  brain dopamine: significant increases
[3]
  clinical picture: significant improvement

## Cc1ccc(C(=O)c2cc(O)c(O)c([N+](=O)[O-])c2)cc1 [tolcapone, 3,4-dihydroxy-4′-methyl-5-nitrobenzophenone]
Liver COMT
  inhibition of liver COMT: almost devoid of COMT inhibitory properties
  inhibition of liver COMT activity: minimal inhibitory effects
Liver COMT; after administration
  time to maximal inhibitory effect on liver COMT: ≤ 0.5 h
[1]; 2 and 7 h after administration
  3-O-methyl-L-DOPA plasma levels: Significant changes
  L-DOPA plasma levels: Significant changes
[1]; administered 24 h in advance
  plasma levels of 3-O-methyl-L-DOPA: not affected
  plasma levels of L-DOPA: not affected
[2]; [6]
  brain levels of 3-O-methyl-L-DOPA: not affected
  brain levels of DOPAC: not affected
  brain levels of L-DOPA: not affected
  brain levels of dopamine: not affected
[2]; rat, in vivo
  steadiness of brain delivery of L-DOPA: marked oscillations

From patent US9446012B2, “Pharmaceutical compounds” (BIAL-PORTELA & CA, S.A., priority 2006, dated 2016)
